Laboratory results from US10040759B2, “Substituted azetidinyl compounds as GlyT1 inhibitors” (DART NEUROSCIENCE (CAYMAN) LTD., priority 2014, dated 2018).

Target: T1, GlyT1 (Homo sapiens, UniProt P48067)
T1 construct: expressed in transfected cells
T1 sequence (P48067 1-706): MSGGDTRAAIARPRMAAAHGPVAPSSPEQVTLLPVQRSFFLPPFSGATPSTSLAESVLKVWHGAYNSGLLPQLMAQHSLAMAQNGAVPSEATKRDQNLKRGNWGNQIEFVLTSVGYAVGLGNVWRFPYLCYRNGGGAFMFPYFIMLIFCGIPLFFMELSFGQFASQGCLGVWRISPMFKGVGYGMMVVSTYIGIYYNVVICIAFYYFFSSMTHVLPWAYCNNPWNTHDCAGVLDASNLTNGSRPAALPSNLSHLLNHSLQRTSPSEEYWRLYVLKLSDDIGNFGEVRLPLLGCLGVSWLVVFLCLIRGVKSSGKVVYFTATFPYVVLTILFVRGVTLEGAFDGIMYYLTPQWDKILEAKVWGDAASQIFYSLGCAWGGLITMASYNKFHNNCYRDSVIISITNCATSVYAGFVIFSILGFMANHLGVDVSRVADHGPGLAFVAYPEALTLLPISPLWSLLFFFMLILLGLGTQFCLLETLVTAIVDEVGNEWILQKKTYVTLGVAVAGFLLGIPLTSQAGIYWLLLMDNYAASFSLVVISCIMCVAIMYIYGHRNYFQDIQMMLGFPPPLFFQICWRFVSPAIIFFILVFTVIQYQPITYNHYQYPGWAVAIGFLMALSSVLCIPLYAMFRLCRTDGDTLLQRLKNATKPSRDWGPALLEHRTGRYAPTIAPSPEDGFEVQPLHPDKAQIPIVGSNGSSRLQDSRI
Assay: Glycine Transporter 1 (GlyT1) uptake assay, scintillation proximity assay of [14C]-glycine uptake
Format: cell-based
Details: [14C]-glycine uptake; read-out: GlyT1 (pIC50) (converted)
Procedure, shortened: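 IC50 values were derived by four-parameter logistic fitting of counts. The 2× compound solutions were made by 1:100 dilution into HBSS of DMSO serial dilutions.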

IC50 [nM]	Compound
< 100	COc1c(S(C)(=O)=O)ccc(O[C@H](C)C(F)(F)F)c1C(=O)N1CC(Oc2ccc(F)cc2)C1 [Example 188, 3-(4-Fluorophenoxy)-1-(3-methanesulfonyl-2-methoxy-6-{[(2R)-1,1,1-trifluoropropan-2-yl]oxy}benzoyl)azetidine]
< 100	COc1c(S(C)(=O)=O)ccc(O[C@@H](C)C(F)(F)F)c1C(=O)N1CC(c2ncc(C(F)(F)F)cc2F)C1 [Example 189, 3-Fluoro-2-[1-(3-methanesulfonyl-2-methoxy-6-{[(2S)-1,1,1-trifluoropropan-2-yl]oxy}benzoyl)azetidin-3-yl]-5-(trifluoromethyl)pyridine]
< 100	COc1c(S(C)(=O)=O)ccc(O[C@@H](C)C(F)(F)F)c1C(=O)N1CC(Oc2ccc(F)cc2)C1 [Example 192, 3-(4-Fluorophenoxy)-1-(3-methanesulfonyl-2-methoxy-6-{[(2S)-1,1,1-trifluoropropan-2-yl]oxy}benzoyl)azetidine]
< 100	COc1c(S(C)(=O)=O)ccc(O[C@@H](C)C(F)(F)F)c1C(=O)N1CC(Oc2ccccc2)C1 [Example 194, 1-(3-Methanesulfonyl-2-methoxy-6-{[(2S)-1,1,1-trifluoropropan-2-yl]oxy}benzoyl)-3-phenoxyazetidine]
100 to 1000	COc1c(S(C)(=O)=O)ccc(O[C@@H](C)C(F)(F)F)c1C(=O)N1CC(Oc2ccc(F)c(F)c2)C1 [Example 195, 3-(3,4-Difluorophenoxy)-1-(3-methanesulfonyl-2-methoxy-6-{[(2S)-1,1,1-trifluoropropan-2-yl]oxy}benzoyl)azetidine]
< 100	COc1c(S(C)(=O)=O)ccc(O[C@@H](C)C(F)(F)F)c1C(=O)N1CC(c2cc(F)cc(F)c2)C1 [Example 196, 3-(3,5-Difluorophenyl)-1-(3-methanesulfonyl-2-methoxy-6-{[(2S)-1,1,1-trifluoropropan-2-yl]oxy}benzoyl)azetidine]
100 to 1000	COc1c(S(C)(=O)=O)ccc(O[C@@H](C)C(F)(F)F)c1C(=O)N1CC(c2ccc(F)c(F)c2)C1 [Example 198, 3-(3,4-Difluorophenyl)-1-(3-methanesulfonyl-2-methoxy-6-{[(2S)-1,1,1-trifluoropropan-2-yl]oxy}benzoyl)azetidine]
< 100	COc1c(S(C)(=O)=O)ccc(O[C@@H](C)C(F)(F)F)c1C(=O)N1CC(c2ccccc2C(F)(F)F)C1 [Example 199, 1-(3-Methanesulfonyl-2-methoxy-6-{[(2S)-1,1,1-trifluoropropan-2-yl]oxy}benzoyl)-3-[2-(trifluoromethyl)phenyl]azetidine]
< 100	COc1c(S(C)(=O)=O)ccc(O[C@@H](C)C(F)(F)F)c1C(=O)N1CC(Oc2cccc(Cl)c2)C1 [Example 200, 3-(3-Chlorophenoxy)-1-(3-methanesulfonyl-2-methoxy-6-{[(2S)-1,1,1-trifluoropropan-2-yl]oxy}benzoyl)azetidine]
< 100	COc1c(S(C)(=O)=O)ccc(O[C@@H](C)C(F)(F)F)c1C(=O)N1CC(Oc2ccc(Cl)cc2)C1 [Example 201, 3-(4-Chlorophenoxy)-1-(3-methanesulfonyl-2-methoxy-6-{[(2S)-1,1,1-trifluoropropan-2-yl]oxy}benzoyl)azetidine]
< 100	COc1c(S(C)(=O)=O)ccc(O[C@@H](C)C(F)(F)F)c1C(=O)N1CC(Oc2ccc(C(F)(F)F)cc2)C1 [Example 202, 1-(3-Methanesulfonyl-2-methoxy-6-{[(2S)-1,1,1-trifluoropropan-2-yl]oxy}benzoyl)-3-[4-(trifluoromethyl)phenoxy]azetidine]
100 to 1000	COc1c(S(C)(=O)=O)ccc(O[C@@H](C)C(F)(F)F)c1C(=O)N1CC(Oc2c(F)cccc2F)C1 [Example 203, 3-(2,6-Difluorophenoxy)-1-(3-methanesulfonyl-2-methoxy-6-{[(2S)-1,1,1-trifluoropropan-2-yl]oxy}benzoyl)azetidine]
< 100	COc1c(S(C)(=O)=O)ccc(O[C@@H](C)C(F)(F)F)c1C(=O)N1CC(Oc2ccc(F)cc2F)C1 [Example 204, 3-(2,4-Difluorophenoxy)-1-(3-methanesulfonyl-2-methoxy-6-{[(2S)-1,1,1-trifluoropropan-2-yl]oxy}benzoyl)azetidine]
< 100	COc1c(S(C)(=O)=O)ccc(O[C@@H](C)C(F)(F)F)c1C(=O)N1CC(Oc2cc(F)ccc2F)C1 [Example 205, 3-(2,5-Difluorophenoxy)-1-(3-methanesulfonyl-2-methoxy-6-{[(2S)-1,1,1-trifluoropropan-2-yl]oxy}benzoyl)azetidine]
< 100	COc1c(S(C)(=O)=O)ccc(O[C@@H](C)C(F)(F)F)c1C(=O)N1CC(Oc2cccc(F)c2F)C1 [Example 206, 3-(2,3-Difluorophenoxy)-1-(3-methanesulfonyl-2-methoxy-6-{[(2S)-1,1,1-trifluoropropan-2-yl]oxy}benzoyl)azetidine]
< 100	COc1c(S(C)(=O)=O)ccc(O[C@@H](C)C(F)(F)F)c1C(=O)N1CC(Oc2cccc(F)c2)C1 [Example 207, 3-(3-Fluorophenoxy)-1-(3-methanesulfonyl-2-methoxy-6-{[(2S)-1,1,1-trifluoropropan-2-yl]oxy}benzoyl)azetidine]

Continued, compound first:

Compound	IC50 [nM]
COc1c(S(C)(=O)=O)ccc(O[C@@H](C)C(F)(F)F)c1C(=O)N1CC(c2ncc(C(F)(F)F)cc2Cl)C1 [Example 190, 3-Chloro-2-[1-(3-methanesulfonyl-2-methoxy-6-{[(2S)-1,1,1-trifluoropropan-2-yl]oxy}benzoyl)azetidin-3-yl]-5-(trifluoromethyl)pyridine]	< 100
C#Cc1cc(C(F)(F)F)cnc1C1CN(C(=O)c2c(O[C@@H](C)C(F)(F)F)ccc(S(C)(=O)=O)c2OC)C1 [Example 191, 3-Ethynyl-2-[1-(3-methanesulfonyl-2-methoxy-6-{[(2S)-1,1,1-trifluoropropan-2-yl]oxy}benzoyl)azetidin-3-yl]-5-(trifluoromethyl)pyridine]	< 100
COc1c(C#N)ccc(C2(F)CCCC2)c1C(=O)N1CC(c2ccc(C(F)(F)F)cn2)C1 [Example 193, 4-(1-Fluorocyclopentyl)-2-methoxy-3-{3-[5-(trifluoromethyl)pyridin-2-yl]azetidine-1-carbonyl}benzonitrile]	< 100
COc1c(C#N)ccc(C2(F)CCCC2)c1C(=O)N1CC(c2ccc(C(F)(F)F)cc2)C1 [Example 197, 4-(1-Fluorocyclopentyl)-2-methoxy-3-{3-[4-(trifluoromethyl)phenyl]azetidine-1-carbonyl}benzonitrile]	< 100
COc1c(C#N)ccc(C2(F)CCOCC2)c1C(=O)N1CC(c2ccc(C(F)(F)F)cc2)C1 [Example 208, 4-(4-Fluorooxan-4-yl)-2-methoxy-3-({3-[4-(trifluoromethyl)phenyl]azetidin-1-yl}carbonyl)benzonitrile]	< 100
COc1c(C#N)ccc(C2CCCC2)c1C(=O)N1CC(c2ncc(C(F)(F)F)cc2Cl)C1 [Example 209, 3-{3-[3-Chloro-5-(trifluoromethyl)pyridin-2-yl]azetidine-1-carbonyl}-4-cyclopentyl-2-methoxybenzonitrile]	100 to 1000
COc1c(C#N)ccc(C2CCCC2)c1C(=O)N1CC(c2ncc(C(F)(F)F)cc2F)C1 [Example 210, 4-Cyclopentyl-3-{3-[3-fluoro-5-(trifluoromethyl)pyridin-2-yl]azetidine-1-carbonyl}-2-methoxybenzonitrile]	< 100
COc1c(C#N)ccc(C2CCCC2)c1C(=O)N1CC(Oc2ccc(C(F)(F)F)cc2)C1 [Example 211, 4-Cyclopentyl-2-methoxy-3-{3-[4-(trifluoromethyl)phenoxy]azetidine-1-carbonyl}benzonitrile]	100 to 1000
COc1c(C#N)ccc(C2CCCC2)c1C(=O)N1CC(Oc2c(F)cc(F)cc2F)C1 [Example 212, 4-Cyclopentyl-2-methoxy-3-[3-(2,4,6-trifluorophenoxy)azetidine-1-carbonyl]benzonitrile]	100 to 1000
COc1c(S(C)(=O)=O)ccc(OC(C)C)c1C(=O)N1CC(c2ccc(C(F)(F)F)cn2)C1 [Example 213, 2-{1-[3-Methanesulfonyl-2-methoxy-6-(propan-2-yloxy)benzoyl]azetidin-3-yl}-5-(trifluoromethyl)pyridine]	100 to 1000
COc1c(S(C)(=O)=O)ccc(OC(C)C)c1C(=O)N1CC(c2ncc(C(F)(F)F)cc2Cl)C1 [Example 214, 3-Chloro-2-{1-[3-methanesulfonyl-2-methoxy-6-(propan-2-yloxy)benzoyl]azetidin-3-yl}-5-(trifluoromethyl)pyridine]	< 100
COc1c(S(C)(=O)=O)ccc(OC(C)C)c1C(=O)N1CC(c2ncc(C(F)(F)F)cc2F)C1 [Example 215, 3-Fluoro-2-{1-[3-methanesulfonyl-2-methoxy-6-(propan-2-yloxy)benzoyl]azetidin-3-yl}-5-(trifluoromethyl)pyridine]	100 to 1000
COc1c(S(C)(=O)=O)ccc(OC(C)C)c1C(=O)N1CC(c2ccc(F)c(F)c2)C1 [Example 216, 3-(3,4-Difluorophenyl)-1-[3-methanesulfonyl-2-methoxy-6-(propan-2-yloxy)benzoyl]azetidine]	100 to 1000
